In ChEMBL document CHEMBL3430912, “GSK Tres Cantos Anti-Kinetoplastid Screening (TCAKS) Data”:

Experiments:
[1] = system: NIH3T3; test: GSK_TCAKS: pIC50 NIH 3T3 cell line viability assay using luminiscence. Tissue culture surface treated assay plates (1536-well) were used. […] The 100% cells survival control was determined exposing the host-cells to a 0.5% DMSO concentration, whereas the 100% toxicity control was achieved by seeding the cells in presence of Amphotericin B at 50uM. Plates were incubated for four days at 37C, 5% CO2. The assay readout was developed by addition of 5uL of CellTiter-Glo Reagent following the manufacturer's instructions. Luminiscence was measured using a ViewLux.; format: functional, cell-based; settings: Mus musculus, NIH3T3, 96 h
[2] = system: Trypanosoma cruzi; test: GSK_TCAKS: pIC50 Trypanosoma cruzi Imaging: Amastigotes/Cell. […] Cells were then washed once with PBS before infection. T. cruzi trypomastigotes, collected at days 5 to 8 after infection from LLC-MK2 parasite infected cultures, were allowed to swim out for 4h at 37C from a centrifuged pellet (2,500 rpm/10 min/room temperature). Trypomastigotes were then collected and counted in a CASY Cell Counter. Trypomastigotes, in supplemented DMEM, were added to H9c2 cultures in a multiplicity of infection of 1 and incubated for 18 h. Cells were washed once with PBS before incubation of the infected H9c2 monolayer with trypsin (Life-Technologies) to detach cells from the flask. Cells were counted in a CASY Cell Counter using a 150 um capillary and their density set at 5 * 10^4 cells per mL in supplemented assay DMEM. Infected H9c2 were dispensed into 384-well poly-lysine coated assay plates at 50uL per well using a Multidrop Combi dispenser. After seeding them, the plates were incubated at 37C, 5% CO2 for 72h. Cultures were then fixed and stained by addition of 50 uL of a solution containing 8% formaldehyde and 4 uM DRAQ5 DNA dye (BioStatus, UK) per well. […] Five images were collected per well for reliable statistical analysis. Automated image analysis was performed with a script developed on Acapella High Content Imaging and Analysis Software (PerkinElmer). Output: number of amastigotes per cell as infection level measurement.; format: functional, organism-based, Rattus norvegicus; settings: H9c2, 4 h
[3] = system: Trypanosoma cruzi; test: (§1) GSK_TCAKS: pIC50 Trypanosoma cruzi Imaging: Infected Cells. […] Cells were then washed once with PBS before infection. T. cruzi trypomastigotes, collected at days 5 to 8 after infection from LLC-MK2 parasite infected cultures, were allowed to swim out for 4h at 37C from a centrifuged pellet (2,500 rpm/10 min/room temperature). Trypomastigotes were then collected and counted in a CASY Cell Counter. Trypomastigotes, in supplemented DMEM, were added to H9c2 cultures in a multiplicity of infection of 1 and incubated for 18 h. Cells were washed once with PBS before incubation of the infected H9c2 monolayer with trypsin (Life-Technologies) to detach cells from the flask. Cells were counted in a CASY Cell Counter using a 150 um capillary and their density set at 5 * 10^4 cells per mL in supplemented assay DMEM. Infected H9c2 were dispensed into 384-well poly-lysine coated assay plates at 50uL per well using a Multidrop Combi dispenser. After seeding them, the plates were incubated at 37C, 5% CO2 for 72h. Cultures were then fixed and stained by addition of 50 uL of a solution containing 8% formaldehyde and 4 uM DRAQ5 DNA dye (BioStatus, UK) per well. […] Five images were collected per well for reliable statistical analysis. Automated image analysis was performed with a script developed on Acapella High Content Imaging and Analysis Software (PerkinElmer). Output: percentage of infected cells per well as a second infection marker.; format: functional, organism-based, Rattus norvegicus; settings: H9c2, 4 h
[4] = system: Leishmania donovani; test: GSK_TCAKS: pIC50 Leishmania donovani Imaging: THP-1 Host Macrophages. Assay plates (384-well) were prepared by adding 250nL of compound to each well. For single shot assay, the final compound concentration was 5 uM. […] Automated image analysis was performed with a script developed on Acapella High Content Imaging and Analysis Software (PerkinElmer). Output: THP-1 cell count were reported for each well.; format: functional, organism-based, Homo sapiens
[5] = system: Trypanosoma brucei brucei; test: GSK_TCAKS: pIC50 Trypanosoma brucei viability assay using fluorescence intensity. Assay plates (1536-well) were prepared by dispensing 25nL of compound solution per well using an Echo acoustic dispenser (Labcyte).; format: functional, organism-based; settings: Lister 427, 2 h
[6] = system: Trypanosoma cruzi; test: as §1, with “H2C9” for “Trypanosoma cruzi”, “H9c2 Host Cardiomyocytes.” for “Infected Cells.”, “Number” for “percentage”, “H9c2 Host Cardiomyocytes nuclei to determine drug-related cytotoxicity.” for “infected cells per well as a second infection marker.”; format: functional, organism-based, Rattus norvegicus; settings: H9c2, 4 h
[7] = molecular target: Sterol 14-alpha demethylase (Trypanosoma cruzi (strain CL Brener), UniProt Q7Z1V1); test: GSK_TCAKS: pIC50 CYP51 from Trypanosoma cruzi.; format: functional
Sterol 14-alpha demethylase, sequence (Q7Z1V1 whole entry): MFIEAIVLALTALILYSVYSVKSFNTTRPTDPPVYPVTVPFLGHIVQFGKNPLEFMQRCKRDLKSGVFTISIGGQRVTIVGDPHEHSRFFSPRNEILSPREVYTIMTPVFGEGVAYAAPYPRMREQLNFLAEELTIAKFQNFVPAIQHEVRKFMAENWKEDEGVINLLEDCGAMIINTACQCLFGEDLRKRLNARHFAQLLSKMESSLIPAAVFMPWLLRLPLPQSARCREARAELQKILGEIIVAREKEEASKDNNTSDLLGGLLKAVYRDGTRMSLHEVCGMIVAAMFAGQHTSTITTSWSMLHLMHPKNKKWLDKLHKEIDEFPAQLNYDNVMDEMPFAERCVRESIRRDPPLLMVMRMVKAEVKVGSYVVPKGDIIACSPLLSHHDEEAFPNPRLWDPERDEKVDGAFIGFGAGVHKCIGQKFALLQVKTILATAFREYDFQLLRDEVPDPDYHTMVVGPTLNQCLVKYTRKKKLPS

[8] = system: Leishmania donovani; test: GSK_TCAKS: pIC50 Leishmania donovani viability assay using fluorescence intensity. Assay plates (1536-well) were prepared by adding 30nL per well of compound. For single shot assay, the final compound concentration was 5uM. […] Briefly, eGFP LdBOB axenic amastigotes were harvested, fixed and counted in a CASY cell counter (Roche-Applied Science). A final concentration of 1.5 * 10^5 cells per well were prepared in amastigote media containing 500 U/mL penicillin/streptomycin (Invitrogen) and 6uL was dispensed to each experimental well using a Multidrop Combi dispenser (Thermo Scientific). 6uL of assay media was dispensed to control columns used as reference for 100% compound response. Following incubation for 72 h at 37C, 5% CO2, 2 uL of resazurin was added to each well at a final concentration of 0.5 mM in phosphate buffered saline (PBS) with IGEPAL (Sigma-Aldrich), 0.05% (v/v).; format: functional, organism-based
[9] = system: Trypanosoma cruzi; test: GSK_TCAKS: pIC50 Trypanosoma cruzi viability assay using beta-GAL activity. This assay was run at single shot at 5uM compound concentration per well. The biological reagents consisted of NIH-3T3 host cells and trypomastigotes parasitic cells; both cell types were set to a 3.3 * 10^5 cells/mL dilution in assay DMEM by means of a CASY cell counter device using a 60um capillary. 6 uL of the mixture were dispensed per well (about 1 * 10^3 host-cells and 1 * 10^3 parasites) with a Multidrop Combi dispenser. […] In all wells, the percentage of DMSO never exceeded 0.5%. Plates incubated for four days at 37C, 5% CO2. The substrate used for the assay fluorescence intensity (FLINT) readout was resorufin-beta-D-galactopiranoside (Sigma-Aldrich) at 5uM per well. It was diluted in PBS supplemented with the soft detergent Igepal (Fluka).; format: functional, organism-based, Mus musculus; settings: Tulahuen, NIH3T3
[10] = system: Trypanosoma brucei brucei; test: GSK_TCAKS: pIC50 Trypanosoma brucei viability assay using luminiscence. Assay plates (1536-well) were prepared. T. brucei cultures were harvested and counted in a CASY cell counter. A parasite suspension was prepared at a final concentration of 5 * 10^4 cells/mL in complete HMI9 medium and 6uL was dispensed to all wells containing compounds using a Multidrop Combi dispenser. 6uL of HMI9 media with 0.4% DMSO were dispensed to control columns. Plates were incubated for 24 h at 37C, 5% CO2 then tempered for 10 min at room temperature. ATP content was quantified by adding 4 uL of CellTiter-Glo Reagent (Promega) according to the manufacturer's instructions. Luminescence was measured using a ViewLux.; format: functional, organism-based; settings: Lister 427, CASY
[11] = system: Leishmania donovani; test: GSK_TCAKS: pIC50 Leishmania donovani Imaging: Amastigotes/Macrophages. Assay plates (384-well) were prepared by adding 250nL of compound to each well. For single shot assay, the final compound concentration was 5 uM. […] Automated image analysis was performed with a script developed on Acapella High Content Imaging and Analysis Software (PerkinElmer). Output: Average number of amastigotes per macrophage cell were reported for each well.; format: functional, organism-based, Homo sapiens; settings: THP-1
[12] = system: Leishmania donovani; test: GSK_TCAKS: pIC50 Leishmania donovani Imaging: Infected Macrophages. Assay plates (384-well) were prepared by adding 250nL of compound to each well. For single shot assay, the final compound concentration was 5 uM. […] Automated image analysis was performed with a script developed on Acapella High Content Imaging and Analysis Software (PerkinElmer). Output: Percent of infected macrophage cells were reported for each well.; format: functional, organism-based, Homo sapiens; settings: THP-1
[13] = GSK_TCAKS: pIC50 HepG2 human cell line viability assay using luminiscence. […] Seeding density was checked to ensure that new mono-layers were not more than 50% confluent at the time of harvesting. Cell suspension was added to 500 mL of the same medium at a final density of 1.2 * 10^5 cells/mL. This cell suspension was dispensed (25 uL, 3000 cells per well) into 384-well clear-bottom plates using a Multidrop Combi dispenser. Prior to addition of the cell suspension, the screening compounds (250 nL) were pre-dispensed into the plates with an Echo liquid handler. Plates were incubated for 48 h at 37C, 5% CO2. After incubation, plates equilibrated at room temperature for 30 min before proceeding to develop the luminescent signal. The signal developer, CellTiter-Glo Reagent, was allowed to equilibrate at room temperature for 30 min and added to the plates (25uL per well) using a Multidrop Combi dispenser. Plates were left for 10 min at room temperature for stabilization and then read using a ViewLux.; format: toxicity, cell-based

Compound	IC50 [1] [µM]	IC50 [2] [µM]	IC50 [3] [µM]	IC50 [4] [µM]	IC50 [5] [µM]	IC50 [6] [µM]	IC50 [7] [µM]	IC50 [8] [µM]	IC50 [9] [µM]	IC50 [10] [µM]	IC50 [11] [µM]	IC50 [12] [µM]	IC50 at 48 h [13] [µM]
O=c1[nH]cnc2c([C@@H]3O[C@H](CO)[C@@H](O)[C@H]3O)n[nH]c12 [FORMYCIN B]	> 50.1	0.316	0.501	> 50.1	0.00316	> 50.1	> 100	0.398	0.141	0.00501	0.398	2	> 100
O=C(Cn1cnc([N+](=O)[O-])n1)Nc1ccc(Cl)cc1C(=O)c1ccccc1	> 50.1	0.316	1.26	> 50.1	20	> 50.1	10	> 50.1	0.251	31.6	> 50.1	> 50.1	> 100
Cc1cc(C#N)c([N+](=O)[O-])cc1Br	20	0.0501	0.316	25.1	0.794	50.1	7.94	25.1	0.2	3.98	31.6	39.8	31.6
O=C(N1CCc2ccccc2CC1)C1(C(=O)N2CCC(n3c(=O)[nH]c4ncccc43)CC2)CC1	39.8	0.631	0.794	> 50.1	> 39.8	> 50.1	0.316	> 50.1	0.631	> 39.8	> 50.1	> 50.1	> 100
COc1ccc(NS(=O)(=O)c2cc(NC(=O)c3ccc([N+](=O)[O-])s3)ccc2OC)cc1	> 50.1	0.0794	0.1	12.6	0.0501	> 50.1	1	0.501	0.0708	0.126	0.794	0.794	> 100
COc1cccc(-c2cc(C(F)(F)F)nc(-n3ccc([N+](=O)[O-])n3)n2)c1	> 50.1	0.2	0.398	> 50.1	31.6	> 50.1	> 100	> 50.1	0.398	> 39.8	> 50.1	> 50.1	> 100
O=C(Nc1cccc(Cl)c1)N1CCCCC1c1cccnc1 (stereo not given)	31.6	0.2	0.2	> 50.1	> 39.8	> 50.1	0.02	3.16	0.178	> 39.8	> 50.1	> 50.1	> 100
CC(C(=O)Nc1ccccc1F)N(C)CC(=O)Nc1cccc2ccccc12 (stereo not given)	12.6	0.316	0.501	> 50.1	25.1	> 50.1	15.8	50.1	0.398	> 39.8	> 50.1	> 50.1	> 100
O=C(c1cc2cc(Cl)ccc2[nH]1)N1CCCCC1c1cccnc1 (stereo not given)	39.8	0.126	0.126	15.8	25.1	31.6	0.0631	50.1	0.251	15.8	10	31.6	39.8
COc1ccc(-c2nc3ncccc3o2)cc1NC(=O)c1cccs1	> 50.1	2	2.51	20	1.26	> 50.1	> 100	5.01	2	2.51	> 50.1	> 50.1	> 100
